Measurements from publication PMC4047407 (The Journal of Biological Chemistry, 2014).
Where a SMILES comes first, the peptide text is derived from it. Bridges are numbered along the chain shown (N, C = ends).

Columns and labels:
M. sexta V-ATPase = biological target: T1, M. sexta V-ATPase (Manduca sexta, UniProt P31403); test: V-ATPase assay, detection of released phosphate, purified V1Vo holoenzyme; assay type: biochemical; settings: Fig. 5, read-out: apparent Ki, inhibition of M. sexta V-ATPase
T1 construct: The M. sexta V1Vo holoenzyme was extracted and purified as described previously; from tissue
T1 sequence (P31403 whole entry): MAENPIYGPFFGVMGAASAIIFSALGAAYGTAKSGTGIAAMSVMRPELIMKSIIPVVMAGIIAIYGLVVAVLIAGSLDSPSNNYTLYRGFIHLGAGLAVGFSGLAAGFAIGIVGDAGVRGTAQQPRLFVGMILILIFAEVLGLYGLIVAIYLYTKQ
Protocol: (§1) S. oryzae strains WAA42 and ISOR3 were reared according to Louis et al. ([25]). […] PA1b labeling using ^125I and binding assays using the ^125I toxin were performed according to Ref. [22], and binding data were analyzed using the SIMFIT software. Fifth instar larvae of M. sexta (Lepidoptera, Sphingidae), weighing 6–8 g, were reared under long day conditions (16 h of light) at 27 °C using the gypsy moth diet (MP Biomedicals).
(§2) V-ATPase assays based on the detection of released phosphate using the M. sexta V-ATPase or yeast vacuolar membranes were carried out as reported previously ([23], [28], [29]).
(§3) FIGURE 5. Inhibition of yeast V-ATPase activity. […] For comparison, inhibition of the purified V1Vo holoenzyme of M. sexta (squares) by PA1b is included.

[1] = tested on: crude membrane extract of S. oryzae (PA1b binding site); design: species or system Sitophilus oryzae; settings: WAA42 membrane extracts; bafilomycin up to 10 μM; data not shown
[2] = biological target: V-ATPase from wild type S. cerevisiae strain BMA64-1B (Saccharomyces cerevisiae, UniProt P23968+P25515+P32842); test: V-ATPase assay on yeast vacuolar membranes, wild type strain; assay type: biochemical; settings: Fig. 5, read-out: Ki, inhibition of V-ATPase activity
Protocol: as §2, §3

S. oryzae strain WAA42 = test: Weevil toxicity bioassay, inhibitor in the food, PA1b-sensitive strain; assay type: in vivo, Sitophilus oryzae; settings: 30 weevils, artificial diet over 14 days
Protocol: as §1
(§4) FIGURE 6. […] 30 rice weevils (S. oryzae) were fed on artificial diet incorporating each tested compound over 14 days. The weevil strains were WAA42 (PA1b-sensitive strain: open symbols) and ISOR3 (PA1b-resistant strain: filled symbols). […] Open diamonds/dashed line, control for artificial diet with bafilomycin solvent.

S. oryzae strain ISOR3 = test: Weevil toxicity bioassay, inhibitor in the food, PA1b-resistant strain; assay type: in vivo, Sitophilus oryzae; settings: 30 weevils; for Mortality: 14 days
Protocol: as §1, §4

Compound	Ki (M. sexta V-ATPase) [nM]	Inhibition of binding of radiolabeled PA1b by bafilomycin [1]	Ki [2] [nM]	TL50 (S. oryzae strain WAA42; bafilomycin 0.36 mg/g of food) [days]	TL50 (S. oryzae strain WAA42; bafilomycin 0.60 mg/g of food) [days]	TL50 (S. oryzae strain WAA42; bafilomycin 2.0 mg/g food) [days]	Mortality (S. oryzae strain ISOR3; bafilomycin 0.36 mg/g of food)	Mortality (S. oryzae strain ISOR3; bafilomycin 0.60 mg/g of food)	TL50 (S. oryzae strain ISOR3; bafilomycin 2.0 mg/g food, artificial diet over 14 days) [days]
CC[C@H](C)[C@@H]1NC(=O)[C@H](C(C)C)NC(=O)[C@H](CC(C)C)NC(=O)CNC(=O)[C@H](C(C)C)NC(=O)[C@@H]2CCCN2C(=O)[C@H]([C@@H](C)CC)NC(=O)[C@@H]2CSSC[C@@H]3NC(=O)[C@H](C(C)C)NC(=O)CNC(=O)[C@H](CC(N)=O)NC(=O)[C@@H](NC(=O)[C@H](CO)NC(=O)[C@H](C)N)CSSC[C@H](NC(=O)[C@H](C)NC(=O)[C@H](CO)NC(=O)[C@H]([C@@H](C)O)NC(=O)CNC(=O)[C@H](CSSC[C@@H](C(=O)N[C@@H](CCCNC(=N)N)C(=O)N[C@@H](CC(N)=O)C(=O)N4CCC[C@H]4C(=O)N[C@@H](CO)C(=O)NCC(=O)O)NC(=O)[C@H](Cc4ccc(O)cc4)NC(=O)CNC1=O)NC(=O)[C@@H]1CCCN1C(=O)[C@@H]1CCCN1C(=O)[C@H](CCSC)NC(=O)[C@H](CCC(=O)O)NC(=O)[C@H](Cc1ccccc1)NC(=O)[C@@H]1CCCN1C(=O)[C@H](CO)NC3=O)C(=O)N[C@@H](CCCNC(=N)N)C(=O)N2 [PA1b, pea albumin 1 subunit b] (H-ASCNGVCSPFEMPPCGTSACRCIPVGLVIGYCRNPSG-OH; disulfide 3-20, 7-22, 15-32)	~91								
CO/C1=C\C(C)=C\[C@@H](C)[C@@H](O)[C@@H](C)C/C(C)=C/C=C/[C@H](OC)[C@@H]([C@@H](C)[C@@H](O)[C@H](C)[C@@]2(O)C[C@@H](O)[C@H](C)[C@@H](C(C)C)O2)OC1=O [bafilomycin, bafilomycin A1]		unable to inhibit	~2.4	12.6 ± 2.3	9.4 ± 1	4.0 ± 0.2	no mortality	no mortality	9.9 ± 0.5
